Results from ChEMBL document CHEMBL5029168, “Discovery of novel ID2 antagonists from pharmacophore-based virtual screening as potential therapeutics for glioma” (Bioorg Med Chem, 2021).
Activity calls are given as the source filed them. The calls are words filed in the database; no cut-off is given here.

Experiments:
[1] = test system: Hs 683; assay: Cytotoxicity against human Hs 683 cells assessed as reduction in cell viability incubated for 24 hrs by CCK8 assay; type: functional, cell-based; conditions: Hs 683, 24 h
[2] = test system: GL261; assay: Cytotoxicity against mouse GL261 cells assessed as reduction in cell viability incubated for 24 hrs by CCK8 assay; type: functional, cell-based; conditions: GL261, 24 h
[3] = test system: U-87 MG; assay: Cytotoxicity against human U87 cells assessed as reduction in cell viability incubated for 24 hrs by CCK8 assay; type: functional, cell-based, U-87MG ATCC
[4] = Aqueous solubility of compound at up to 80 uM measured after 10 mins by optical microscopic analysis; type: physicochemical; conditions: buffer
[5] = test system: U87; assay: Inhibition of ID2/KDR signalling in human U87 cells assessed as reduction in KDR mRNA expression at 12.5 to 50 uM measured after 24 hrs by qRT-PCR analysis; type: cell-based; conditions: filed as antagonist, dose 12.5-50 µM
[6] = test system: GL261; assay: Induction of apoptosis in mouse GL261 cells assessed as early apoptotic cells at 50 uM measured after 24 hrs by annexin V-FITC/propidium iodide staining based flow cytometry analysis (reference value: 1.61%); type: functional
[7] = test system: U87; assay: Inhibition of ID2/KDR signalling in human U87 cells assessed as reduction in MMP9 expression at 12.5 to 50 uM measured after 24 hrs by western blot analysis; type: cell-based; conditions: filed as antagonist, dose 12.5-50 µM
[8] = test system: GL261; assay: Antimigratory activity against mouse GL261 cells assessed as inhibition of cell migration measured after 24 hrs by crystal violet staining based inverted microscopic analysis; type: functional
[9] = test system: U87; assay: Inhibition of ID2/KDR signalling in human U87 cells assessed as reduction in ID2 mRNA expression at 12.5 to 50 uM measured after 24 hrs by qRT-PCR analysis; type: cell-based; conditions: filed as antagonist, dose 12.5-50 µM
[10] = test system: U87; assay: Inhibition of ID2/KDR signalling in human U87 cells assessed as increase in PTEN expression at 12.5 to 50 uM measured after 24 hrs by western blot analysis; type: cell-based; conditions: filed as antagonist, dose 12.5-50 µM
[11] = test system: U-87 MG; assay: Induction of apoptosis in human U87 cells assessed as late apoptotic cells at 25 uM measured after 24 hrs by annexin V-FITC/propidium iodide staining based flow cytometry analysis (reference value: 2.56%); type: functional, U-87MG ATCC
[12] = test system: GL261; assay: Antiinvasive activity against mouse GL261 cells assessed as inhibition of cell invasion measured after 24 hrs by crystal violet staining based inverted microscopic analysis; type: functional
[13] = species: Homo sapiens; assay: Binding affinity to CM5 sensor chip immobilized human ID2 assessed as association constant by SPR analysis; conditions: filed as antagonist
[14] = test system: U-87 MG; assay: Induction of apoptosis in human U87 cells assessed as early apoptotic cells at 50 uM measured after 24 hrs by annexin V-FITC/propidium iodide staining based flow cytometry analysis (reference value: 4.35%); type: functional, U-87MG ATCC
[15] = species: Homo sapiens; assay: Binding affinity to CM5 sensor chip immobilized human ID2 assessed as maximum response by SPR analysis; conditions: filed as antagonist
[16] = test system: U-87 MG; assay: Induction of apoptosis in human U87 cells assessed as dead cells at 25 uM measured after 24 hrs by annexin V-FITC/propidium iodide staining based flow cytometry analysis (Rvb =3.52 %); type: functional, U-87MG ATCC
[17] = Toxicity in NCG mouse […] with human U87 cells assessed as liver damage at 2.5 mg/kg, ip administered every other day for 5 days and measured after 7 days post first dose by H and E staining based assay; type: organism-based; conditions: in vivo, 168 h, time 7 day
[18] = test system: U-87 MG; assay: Induction of apoptosis in human U87 cells assessed as early apoptotic cells at 25 uM measured after 24 hrs by annexin V-FITC/propidium iodide staining based flow cytometry analysis (reference value: 4.35%); type: functional, U-87MG ATCC
[19] = Toxicity in NCG mouse xenografted with human U87 cells assessed as reduction in body weight at 2.5 mg/kg, ip administered every other day for 5 days and measured after 12 days; type: organism-based; conditions: in vivo, 288 h, time 12 day
[20] = Binding affinity to CM5 sensor chip immobilized human ID2 assessed as dissociation constant by SPR analysis
[21] = test system: U-87MG ATCC; assay: Antitumor activity against human U87 cells xenografted in NCG mouse assessed as reduction in Ki67 expression in tumor at 2.5 mg/kg, ip administered every other day for 5 days and measured after 7 days post first dose by immunohistochemical analysis; type: functional, organism-based; conditions: time 7.0 day
[22] = test system: U87; assay: Inhibition of ID2/KDR signalling in human U87 cells assessed as decrease in ID2 protein level measured after 24 hrs by western blot analysis; type: cell-based; conditions: filed as antagonist
[23] = test system: GL261; assay: Antimigratory activity against mouse GL261 cells assessed as reduction in wound closure at 12.5 uM measured up to 24 hrs by scratch wound healing assay (Rvb =63.3+/-0.78%); type: functional; design: scale not given: the % may be the effect or the level left; conditions: time hrs <=24
[24] = test system: U87; assay: Inhibition of ID2/KDR signalling in human U87 cells assessed as decrease in VEGFA protein level measured after 24 hrs by western blot analysis; type: cell-based; conditions: filed as antagonist
[25] = test system: U-87 MG; assay: Induction of apoptosis in human U87 cells assessed as viable cells at 50 uM measured after 24 hrs by annexin V-FITC/propidium iodide staining based flow cytometry analysis (reference value: 89.6%); type: functional, U-87MG ATCC; conditions: read-out: Activity
[26] = test system: GL261; assay: Induction of apoptosis in mouse GL261 cells assessed as dead cells at 50 uM measured after 24 hrs by annexin V-FITC/propidium iodide staining based flow cytometry analysis (reference value: 1.22%); type: functional
[27] = Antitumor activity against human U87 cells xenografted in NCG mouse assessed as tumor growth inhibition at 2.5 mg/kg, ip administered every other day for 5 days relative to control; type: functional, U-87MG ATCC; design: scale not given: the % may be the effect or the level left; conditions: time 5 day
[28] = Toxicity in NCG mouse xenografted with human U87 cells assessed as heart damage at 2.5 mg/kg, ip administered every other day for 5 days and measured after 7 days post first dose by H and E staining based assay; type: organism-based; conditions: in vivo, 168 h, time 7 day
[29] = test system: U87; assay: Inhibition of ID2/KDR signalling in human U87 cells assessed as reduction in MMP2 expression at 12.5 to 50 uM measured after 24 hrs by western blot analysis; type: cell-based; conditions: filed as antagonist, dose 12.5-50 µM
[30] = Toxicity in NCG mouse […] with human U87 cells assessed as kidney damage at 2.5 mg/kg, ip administered every other day for 5 days and measured after 7 days post first dose by H and E staining based assay; type: organism-based; conditions: in vivo, 168 h, time 7 day
[31] = test system: U-87MG ATCC; assay: Antitumor activity against human U87 cells xenografted in NCG mouse assessed as reduction in CD31 marker expression in tumor at 2.5 mg/kg, ip administered every other day for 5 days and measured after 7 days post first dose by immunohistochemical analysis; type: functional, organism-based; conditions: time 7.0 day
[32] = test system: GL261; assay: Induction of apoptosis in mouse GL261 cells assessed as late apoptotic cells at 25 uM measured after 24 hrs by annexin V-FITC/propidium iodide staining based flow cytometry analysis (reference value: 1.01%); type: functional
[33] = test system: NIH3T3; assay: Cytotoxicity against mouse 3T3 cells assessed as reduction in cell viability at up to 100 nM incubated for 24 hrs by CCK8 assay; type: cell-based; conditions: nih3t3, 24 h
[34] = test system: U-87 MG; assay: Antiinvasive activity against human U87 cells assessed as inhibition of cell invasion measured after 24 hrs by crystal violet staining based inverted microscopic analysis; type: functional; conditions: U-87MG ATCC
[35] = test system: U-87 MG; assay: Induction of apoptosis in human U87 cells assessed as late apoptotic cells at 50 uM measured after 24 hrs by annexin V-FITC/propidium iodide staining based flow cytometry analysis (reference value: 2.56%); type: functional, U-87MG ATCC
[36] = test system: U-87 MG; assay: Induction of apoptosis in human U87 cells assessed as viable cells at 25 uM measured after 24 hrs by annexin V-FITC/propidium iodide staining based flow cytometry analysis (reference value: 89.6%); type: functional, U-87MG ATCC; conditions: read-out: Activity
[37] = test system: GL261; assay: Induction of apoptosis in mouse GL261 cells assessed as viable cells at 25 uM measured after 24 hrs by annexin V-FITC/propidium iodide staining based flow cytometry analysis (reference value: 96.1%); type: functional; conditions: read-out: Activity
[38] = test system: GL261; assay: Induction of apoptosis in mouse GL261 cells assessed as late apoptotic cells at 50 uM measured after 24 hrs by annexin V-FITC/propidium iodide staining based flow cytometry analysis (reference value: 1.01%); type: functional
[39] = test system: U87; assay: Inhibition of ID2/KDR signalling in human U87 cells assessed as decrease in KDR protein level measured after 24 hrs by western blot analysis; type: cell-based; conditions: filed as antagonist
[40] = test system: U-87 MG; assay: Antimigratory activity against human U87 cells assessed as inhibition of cell migration measured after 24 hrs by crystal violet staining based inverted microscopic analysis; type: functional; conditions: U-87MG ATCC
[41] = test system: GL261; assay: Induction of apoptosis in mouse GL261 cells assessed as viable cells at 50 uM measured after 24 hrs by annexin V-FITC/propidium iodide staining based flow cytometry analysis (reference value: 96.1%); type: functional; conditions: read-out: Activity
[42] = Toxicity in NCG mouse […] with human U87 cells assessed as lung damage at 2.5 mg/kg, ip administered every other day for 5 days and measured after 7 days post first dose by H and E staining based assay; type: organism-based; conditions: in vivo, 168 h, time 7 day
[43] = test system: L02; assay: Cytotoxicity against human L02 cells assessed as reduction in cell viability at up to 100 nM incubated for 24 hrs by CCK8 assay; type: cell-based; conditions: l02, 24 h
[44] = test system: U-87 MG; assay: Induction of apoptosis in human U87 cells assessed as dead cells at 50 uM measured after 24 hrs by annexin V-FITC/propidium iodide staining based flow cytometry analysis (Rvb =3.52 %); type: functional, U-87MG ATCC
[45] = test system: U-87 MG; assay: Antimigratory activity against human U87 cells assessed as reduction in wound closure at 12.5 uM measured up to 24 hrs by scratch wound healing assay (Rvb =61.5+/-10.21%); type: functional, U-87MG ATCC; design: scale not given: the % may be the effect or the level left; conditions: time hrs <=24
[46] = test system: GL261; assay: Induction of apoptosis in mouse GL261 cells assessed as early apoptotic cells at 25 uM measured after 24 hrs by annexin V-FITC/propidium iodide staining based flow cytometry analysis (reference value: 1.67%); type: functional
[47] = Antitumor activity against human U87 cells xenografted in NCG mouse assessed as reduction in tumor weight at 2.5 mg/kg, ip administered every other day for 5 days and measured after 12 days relative to control; type: functional, U-87MG ATCC; design: scale not given: the % may be the effect or the level left; conditions: time 12 day

COc1ccc(Cn2c(SCC(=O)n3c4c(c5ccccc53)CCCC4)nc3ccccc32)cc1
IC50 [1]: 91.4 µM
IC50 [2]: 90.4 µM
IC50 [3]: 88.5 µM

Cc1ccc(CN2C(=O)[C@](O)(CC(=O)c3ccc4c(c3)OCO4)c3cc(Br)ccc32)cc1
IC50 [1]: 18.7 µM
IC50 [2]: 21.3 µM
solubility [4]: Insoluble
IC50 [3]: 15.5 µM

NC(=O)C1CCN(C(=O)c2ccc(CSc3nc4cccnc4n3Cc3ccccc3)cc2)CC1
IC50 [1]: 62.3 µM
IC50 [2]: 56.7 µM
IC50 [3]: 60.3 µM

Cc1ccc([C@H](O)CNC(=O)c2cccc(C)c2C)cc1
IC50 [1]: 70.3 µM
IC50 [2]: 74.2 µM
IC50 [3]: 67.3 µM

COc1ccc(NS(=O)(=O)c2ccc(NC(=S)NC(=O)C(C)C)cc2)cc1
IC50 [1]: 53.2 µM
IC50 [2]: 61.3 µM
IC50 [3]: 56.7 µM

COc1ccccc1[C@H](CNC(=O)CCc1c[nH]c2ccccc12)N1CCCC1
IC50 [1]: > 100 µM
IC50 [2]: 94.6 µM
IC50 [3]: > 100 µM

O=C(C[C@@]1(O)C(=O)N(Cc2cccc(Cl)c2)c2ccccc21)c1ccccn1
inhibition [5]: Active
Activity [6]: 13.1%
inhibition [7]: Active
IC50 [1]: 34.2 µM
Activity [8]: Dose-Dependent Effect
inhibition [9]: Active
inhibition [10]: Active
Activity [11]: 43.9%
Activity [12]: Dose-Dependent Effect
Ka [13]: 24.8 M⁻¹ s⁻¹
Activity [14]: 27.3%
Rmax [15]: 83.6 RU
Activity [16]: 2.72%
Activity [17]: Non-Toxic
Activity [18]: 45.4%
Activity [19]: Non-Toxic
Kd [20]: 0.129 µM
Activity [21]: Active
inhibition [22]: Dose-Dependent Effect
Activity [23]: 13.11%
IC50 [2]: 38.2 µM
inhibition [24]: Dose-Dependent Effect
solubility [4]: Soluble
viability at 50 µM [25]: 2.61%
Activity [26]: 11%
Activity [27]: 49.7%
Activity [28]: Non-Toxic
inhibition [29]: Active
Activity [30]: Non-Toxic
Activity [31]: Active
Activity [32]: 16%
Activity [33]: Non-Toxic
Activity [34]: Dose-Dependent Effect
Activity [35]: 68.8%
viability at 25 µM [36]: 8.04%
viability at 25 µM [37]: 70.2%
Activity [38]: 69.3%
inhibition [39]: Dose-Dependent Effect
Activity [40]: Dose-Dependent Effect
viability at 50 µM [41]: 6.58%
Activity [42]: Non-Toxic
Activity [43]: Non-Toxic
Activity [44]: 1.29%
Activity [45]: 5.59%
Activity [46]: 8.24%
Activity [47]: 57.8%
IC50 [3]: 27.3 µM

COc1cccc2c1OC(c1ccc(F)cc1)N1N=C(c3ccccc3)CC21 (centres undefined)
IC50 [1]: > 100 µM
IC50 [2]: > 100 µM
IC50 [3]: > 100 µM
